# Patent US20250154193A1, “STEROID COMPOUND, AND PREPARATION METHOD THEREFOR AND APPLICATION THEREOF” (CHOLESGEN (SHANGHAI) CO., LTD., priority 2022, published 2025)
# System: not listed separately
# Test: Liver microsomal metabolic stability assay
# Type: in vitro ADME
# Conditions: rat liver microsomes, NADPH, 37° C., 0-60 minutes; read-out: Rat microsomal metabolic half-life (t1/2)
# Description: PBS solution (100 mM), MgCl2 solution (100 mM), and NADPH solution (20 mM) were prepared respectively. Compound and testosterone (positive control) stock solutions were then prepared with dimethyl sulfoxide (DMSO), diluted to 100 µM with methanol for sample incubation, and stored at −10 to −30° C. 12.5 μL of rat liver microsomes (purchased from XenoTech, Cat. No.: R1000, Lot No.: 1310030, specification: 20 mg/mL), 432.5 µL of PBS solution (100 mM), 25 µL of NADPH solution (20 mM), and 25 μL of MgCl2 solution (100 mM) were added to a 96-well plate, mixed well, and pre-incubated at 37° C. for 5 minutes. 5 µL of substrate (test compound) solution was added to start the reaction. At specified time points of 0, 5, 15, 30, 45, and 60 minutes (0 and 60 minutes for the negative control group), 50 µL of the incubated samples were added to a stop plate containing 100 µL of ice-cold stop solution, vortexed for 1 minute to inactivate the reaction, and stored at −60 to −90° C. for subsequent analysis. Sample analysis of the test compound and the control compound testosterone was performed using LC-MS/MS method. Chromatographic peaks were integrated, calculated, and processed using Analyst software. Semi-quantitative analysis was performed for both the test compound and the control compound testosterone by calculating peak area ratios.
row,Structure (SMILES),half-life at 1 µM [min]
1,"C[C@H](CCCC(C)(C)O)[C@H]1CC[C@H]2[C@@H]3C(=O)C[C@H]4C[C@@H](O)CC[C@]4(C)[C@H]3CC[C@]12C [compound 216, 3P,25-dihydroxy-5α-cholest-7-one]",23.1
2,C[C@H](CCCC(O)c1c(F)cccc1F)[C@H]1CC[C@H]2[C@@H]3CC[C@H]4C(=O)[C@@H](O)CC[C@]4(C)[C@H]3CC[C@]12C (some centres unmarked) [compound 298],19

# System: SREBP pathway
# Test: SREBP luciferase reporter gene system (SRE-luciferase assay) in Huh-7/SRE-Luc cells
# Type: cell-based
# Conditions: Homo sapiens, sterol-deficient medium, compound treatment 16 hours, luciferase/GFP ratio
# Description: Huh-7/SRE-Luc, a human hepatocellular carcinoma cell line, was grown in a culture medium containing DMEM, 10% fetal bovine serum, 100 units/mL penicillin, 100 µg/mL streptomycin, and 200 μg/mL G418.
# The Huh-7/SRE-Luc cell line is a human hepatocellular carcinoma cell line Huh-7 stably expressing LDLR promoter-luciferase and green fluorescent protein (GFP). The LDLR promoter region contains a sterol regulatory element (SRE) that can effectively and sensitively respond to the regulation of the transcription factor SREBP. The GFP signal serves as an internal reference to indicate changes in cell number. Therefore, this cell line can be used to screen for active small molecules that regulate the SREBP signaling pathway. […] Cells were incubated in a sterol-deficient medium (5% lipoprotein-deficient serum, 2 μM Lovastatin, 10 μM mevalonate) and treated with corresponding concentrations of compounds for 16 hours. After compound treatment, the cells were lysed with lysis buffer (E397A, Promega), followed by the addition of luciferase substrate (E1500, Promega). The SRE-driven luciferase activity was measured using a BioTek Synergy HTX microplate reader (including but not limited to this type of instrument). The fluorescence intensity of enhanced green fluorescent protein (EGFP) was also measured using the BioTek microplate reader (including but not limited to this type of instrument) and used as an internal reference. The ratio of SRE-driven luciferase activity to GFP fluorescence intensity was used as an indicator of SREBP pathway activity. The test data of each test compound was analyzed using Prism software to obtain the IC50 parameter of the compound.
# The inhibitory effect of the compounds of the present disclosure on the SREBP pathway was tested by the method of bioassay example 2. The concentration gradient of each compound was designed as 0.01, 0.03, 0.1, 0.3, 1.0, 3.0, and […], with DMSO as a vehicle control.
row,Structure (SMILES),IC50 [µM]
1,"C[C@H](CCCC(C)(C)O)[C@H]1CC[C@H]2[C@@H]3C(=O)C[C@H]4C[C@@H](O)CC[C@]4(C)[C@H]3CC[C@]12C [compound 216, 3P,25-dihydroxy-5α-cholest-7-one]",0.379
2,C[C@H](CCCC(O)c1c(F)cccc1F)[C@H]1CC[C@H]2[C@@H]3CC[C@H]4C(=O)[C@@H](O)CC[C@]4(C)[C@H]3CC[C@]12C (some centres unmarked) [compound 298],0.028
3,"COc1ccccc1[C@H](O)CCC[C@@H](C)[C@H]1CC[C@H]2[C@@H]3CC[C@H]4[C@@H](O)[C@@H](O)CC[C@]4(C)[C@H]3CC[C@]12C (single isomer, unassigned) [compound 325, 24-[S-hydroxy(2-methoxyphenyl)methyl]-5α-cholan-3β,4β-diol or 24-[R-hydroxy(2-methoxyphenyl)methyl]-5α-cholan-3β,4β-diol]",0.09
4,"C[C@H](CCCC(C)(C)O)[C@H]1CC[C@H]2[C@@H]3CC[C@H]4CC(NS(C)(=O)=O)CC[C@]4(C)[C@H]3CC[C@]12C (stereo partly drawn) [compound 310, N-[(1R,3aS,3bR,9aS,9bS,11aR)-1-[(2R)-6-hydroxy-6-methylheptan-2-yl]-9a,11a-dimethylhexadecahydro-1H-cyclopenta[1,2-a]phenanthrene-7-yl]methanesulfonamide]",1.41
5,"C[C@H](CCN(C)C(=O)c1ccccc1F)[C@H]1CC[C@H]2[C@@H]3CC[C@H]4C[C@@H](O)CC[C@]4(C)[C@H]3CC[C@]12C [compound 268, 2-fluoro-N-[(3R)-3-[(1R,3aS,3bR,5aS,7S,9aS,9bS,11aR)-7-hydroxy-9a,11a-dimethylhexadecahydro-1H-cyclopenta[1,2-a]phenanthren-1-yl]butyl]-N-methylbenzamide]",0.825
6,"CC(O)C1CC[C@@]2(C)[C@@H](CC[C@@H]3[C@@H]2CC[C@]2(C)[C@@H]([C@H](C)CCCC(C)(C)O)CC[C@@H]32)C1 (stereo partly drawn) [compound 290, 3-(1-hydroxyethyl)-5α-cholest-25-ol]",0.699
7,"C[C@H](CCCC(C)(C)O)[C@H]1CC[C@H]2[C@@H]3CC[C@H]4CC(C(=O)O)CC[C@]4(C)[C@H]3CC[C@]12C (stereo partly drawn) [compound 309, 25-hydroxy-5α-cholest-3-carboxylic acid]",8.96
8,"C[C@H](CCCC(C)(O)c1ccccc1F)[C@H]1CC[C@H]2[C@@H]3CC[C@H]4[C@@H](O)[C@@H](O)CC[C@]4(C)[C@H]3CC[C@]12C (stereo partly drawn) [compound 278, 24-[1-(2-fluorophenyl)-1-hydroxyethyl]-5α-cholan-3β,4β-diol]",0.106
9,"C[C@H](CCCC(C)(C)O)[C@H]1CC[C@H]2[C@@H]3CC[C@H]4CC(C)(O)CC[C@]4(C)[C@H]3CC[C@]12C (some centres unmarked) [compound 307, 3-methylcholest-3,25-diol]",0.588
10,"C[C@H](CCCC(C)(C)O)[C@H]1CC[C@H]2[C@@H]3CCC4(O)C[C@@H](O)CC[C@]4(C)[C@H]3CC[C@]12C (some centres unmarked) [compound 205, cholest-30,5,25-triol]",0.817
11,"C[C@H](CCCC(O)c1ccccc1F)[C@H]1CC[C@H]2[C@@H]3C(=O)C[C@H]4[C@@H](O)[C@@H](O)CC[C@]4(C)[C@H]3CC[C@]12C (stereo partly drawn) [compound 271, 24-[(2-fluorophenyl)(hydroxy)methyl]-4β-hydroxy-3β-hydroxy-5α-cholan-7-one]",0.139
12,"C[C@H](CCCC(C)(C)O)[C@H]1CC[C@H]2[C@@H]3CC[C@H]4C(O)(C(F)(F)F)[C@@H](O)CC[C@]4(C)[C@H]3CC[C@]12C (stereo partly drawn) [compound 246, 4-(trifluoromethyl)-5α-cholest-3β,4,25-triol]",0.988
13,"C[C@H](CCCC(C)(C)O)[C@H]1CC[C@H]2[C@@H]3CC(=O)C4(O)C[C@@H](O)CC[C@]4(C)[C@H]3CC[C@]12C (some centres unmarked) [compound 225, 3P,5,25-trihydroxycholest-6-one]",0.667
14,"C[C@H](CCCC(C)(C)O)[C@H]1CC[C@H]2[C@@H]3C[C@H](O)[C@H]4[C@@H](O)[C@@H](O)CC[C@]4(C)[C@H]3CC[C@]12C [compound 272, 5α-cholest-3β,4P,6α,25-tetraol]",20.1
15,C[C@H](CCCC(O)c1ccccc1F)[C@H]1CC[C@H]2[C@@H]3CC[C@H]4[C@@H](O)[C@@H](O)CC[C@]4(C)[C@H]3CC[C@]12C (some centres unmarked) [compound 234],0.36
16,"C[C@H](CCCC(C)(C)O)[C@H]1CC[C@H]2[C@@H]3CCC4(F)C[C@@H](O)CC[C@]4(C)[C@H]3CC[C@]12C (stereo partly drawn) [compound 266, 5-fluorocholest-3β,25-diol]",0.176
17,"C[C@H](CCCC(C)(C)O)[C@H]1CC[C@H]2[C@@H]3/C(=N/O)C[C@H]4C[C@@H](O)CC[C@]4(C)[C@H]3CC[C@]12C [compound 285, [(1R,3aS,3bR,4E,5aS,7S,9aS,9bS,11aR)-7-hydroxy-1-[(2R)-6-hydroxy-6-methylheptan-2-yl]-9a,11a-dimethylhexadecahydro-1H-cyclopenta[1,2-a]phenanthren-4-ylidene]hydroxylamine]",0.793
18,"C[C@H](CCCC1(O)CC1)[C@H]1CC[C@H]2[C@@H]3CC[C@H]4C[C@@H](O)CC[C@]4(C)[C@H]3CC[C@]12C [compound 253, 24-(hydroxycyclopropyl)-5α-cholan-3β-ol]",0.187
19,"C[C@H](CCCC(C)(C)O)[C@H]1CC[C@H]2[C@@H]3CC(=O)[C@H]4C[C@@H](O)CC[C@]4(C)[C@H]3CC[C@]12C [compound 255, 3P,25-dihydroxy-5α-cholest-6-one]",0.452
20,"COc1ccccc1C(O)CCC[C@@H](C)[C@H]1CC[C@H]2[C@@H]3C(=O)C[C@H]4[C@@H](O)[C@@H](O)CC[C@]4(C)[C@H]3CC[C@]12C (stereo partly drawn) [compound 320, 4β-hydroxy-3β-hydroxy-24-[hydroxy(2-methoxyphenyl)methyl]-5α-cholan-7-one]",0.16
21,"C[C@H](CCCC(O)c1cc(F)cc(F)c1)[C@H]1CC[C@H]2[C@@H]3CC[C@H]4[C@@H](O)[C@@H](O)CC[C@]4(C)[C@H]3CC[C@]12C (stereo partly drawn) [compound 282, 24-[(3,5-difluorophenyl)(hydroxy)methyl]-5α-cholan-3β,4β-diol]",0.117
22,"C[C@H](CCCC(O)c1ccccc1C(F)(F)F)[C@H]1CC[C@H]2[C@@H]3CC[C@H]4[C@@H](O)[C@@H](O)CC[C@]4(C)[C@H]3CC[C@]12C (stereo partly drawn) [compound 286, 24-{hydroxy[2-(trifluoromethyl)phenyl]methyl}-5α-cholan-30,40-diol]",0.575
23,"C[C@H](CCCC(C)(C)O)[C@H]1CC[C@H]2[C@@H]3C(O)C[C@H]4[C@@H](O)[C@@H](O)CC[C@]4(C)[C@H]3CC[C@]12C (stereo partly drawn) [compound 231, cholest-3β,4p,7,25-tetraol]",1.03
24,"C[C@H](CCCC(O)C1CC1)[C@H]1CC[C@H]2[C@@H]3CC[C@H]4[C@@H](O)[C@@H](O)CC[C@]4(C)[C@H]3CC[C@]12C (stereo partly drawn) [compound 233, 24-[cyclopropyl(hydroxy)methyl]-5α-cholan-3β,4β-diol]",0.232
25,"C[C@H](CCCC(O)c1c(F)cccc1F)[C@H]1CC[C@H]2[C@@H]3C(N)C[C@H]4[C@@H](O)[C@@H](O)CC[C@]4(C)[C@H]3CC[C@]12C (stereo partly drawn) [compound 299, 7-amino-24-[(2,6-difluorophenyl)(hydroxy)methyl]-5α-cholan-3P,4β-diol]",4.83
26,"C[C@H](CCCC(C)(C)O)[C@H]1CC[C@H]2[C@@H]3CC(O)C4(O)C[C@@H](O)CC[C@]4(C)[C@H]3CC[C@]12C (stereo partly drawn) [compound 207, cholest-3β,5,6,25-tetraol]",3.09
27,"COc1ccccc1C(O)CCC[C@@H](C)[C@H]1CC[C@H]2[C@@H]3CC[C@H]4C[C@@H](O)CC[C@]4(C)[C@H]3CC[C@]12C (stereo partly drawn) [compound 312, 24-[hydroxy(2-methoxyphenyl)methyl]-5α-cholan-3β-ol]",0.18
